In data set [1] the test system is human melanoma cell line (A375). Nature of the data set: MTT cell viability assay, A375. The settings on record: Homo sapiens, A-375, 48 h, 5–50 µM, read-out: A375 Cell Line IC50 ± SD. The data set is classed as cell-based. The protocol: (§1) Firstly, the antiproliferative activity of lead compound 1, 2 and 5–9 against selected human cell lines was assessed. No effect on human PHA (Phytohaemagglutinin)-stimulated proliferating non-tumor human cell line (PMBC) has been detected for compound 1 tested at different concentrations (10–50 μM) after 72 h of exposure. In more detail, all the synthesized compounds have been tested on human melanoma cancer A375 and HeLa cancer cell lines, which are known to overexpress BAG3 protein, by an MTT cell viability assay, using different concentrations (5–50 μM). The IC50 values have been calculated after 48 h of treatment with test compounds (Table 2).
(§2) Cell lines of human cervical carcinoma (HeLa) and human malignant melanoma (A375) were cultured in Dulbecco’s modified Eagle’s medium containing 10% fetal bovine serum, supplemented with 100 U/mL each of penicillin and streptomycin, and 2 mM/L glutamine and were grown at 37 °C under 5% CO2 air humidified atmosphere.
(§3) Cell viability was evaluated using a colorimetric assay based on MTT ((3-(4,5-dimethylthiazol-2-yl)-2,5-diphenyltetrazolium bromide)) assay. Cells were grown in 96-well tissue culture plates (3,5 × 10^3 cells/well) and after 24 h, were treated with different concentrations of 1, 2 and 5–9 (50, 25, 10, and 5 µM) and incubation was performed for 48 h at 37 °C in an atmosphere containing 5% CO2. At the end of treatment, the plates were centrifuged at 1200 rpm for 5 min, the medium was removed and 100 μL of MTT (1 mg/mL) were added to each well, and cells were incubated at 37 °C for the time necessary to allow the formation of purple formazan precipitate. The solution was then removed from each well, and the formazan crystals within the cells were dissolved with 100 μL of DMSO [31]. The optical density (OD) of each well was measured with a microplate spectrophotometer (Multiskan Spectrum Thermo Electron Corporation reader) (Thermo Fisher Scientific, Rome, Italy) equipped with a 620-nm filter. Cell mortality was calculated as: % mortality = 100 − [100 × (OD treated/OD control)] [32].

Data set [2] concerns human cervical adenocarcinoma cell line (HeLa). Nature of the data set: MTT cell viability assay, HeLa. The data set is classed as cell-based. The note with it: Homo sapiens, HeLa, 48 h, 5–50 µM, read-out: HeLa Cell Line IC50 ± SD. How it is done: as §1, §2, §3
For orientation: Formazan colour is commonly taken as a measure of viable cells.

The test system of the next data set is A375 cells. Nature of the data set: Apoptosis and cell cycle analysis by PI staining and flow cytometry, A375. The note with it: 5-10-25 μM, 48 h. Type of data set: cell-based, human. How it is done:
(§4) The cells were incubated for 48 h with 1 and 6 at concentrations 5-10-25μM.
(§5) The effect of compound 1 and 6 on cell death was analyzed by propidium iodide (PI) (Merck, Darmstadt, Germany) incorporation in permeabilized cells and flow cytometry. Briefly, cells were plated at a density of 2 × 10^4 cells/well in a 24-well plate. After 24 h, 1 and 6 (25-10-5 μM) were added for 48 h. Cells were washed twice with PBS and incubated in 500μL of a solution containing 0.1% Triton X-100, 0.1% sodium citrate, and […] propidium iodide (PI), at 4 °C for 30 min in the dark. The PI-stained cells were subsequently analyzed by flow cytometry by FACSCalibur flow cytometer (Becton Dickinson, Milan, Italy) using CellQuest software (4.0, Becton Dickinson, North Ryde, NSW, Australia). Results are expressed as the percentage of cells in the hypodiploid region. Cellular debris were excluded from the analysis by raising the forward scatter threshold and the DNA content of the nuclei was registered on a logarithmic scale. Cell cycle profiles were evaluated by DNA staining with a PI solution using a flow cytometer. Results from 5000 events per sample were collected, and the relative percentage of the cells in G0/G1, S, G2/M, and sub-G0/G1 phases of the cell cycle was determined using the ModFit LT version 3.3 analysis software (BD Biosciences, North Ryde, NSW, Australia).
Figure 3 Cell cycle analysis: (a) DNA content and (b) hypodiploid nuclei, with propidium iodide staining, were evaluated by flow cytometric assay. A375 cells were treated respectively with 1 or 6 (both 5-10-25 μM) for 48 h. Results are expressed as mean ± S.E.M. of three independent experiments, each performed in duplicate. Data were analyzed by Student’s t-test. * p < 0.05 and ** p < 0.005 vs. non-treated.

Another data set deals with HeLa cells. Nature of the data set: Apoptosis and cell cycle analysis by PI staining and flow cytometry, HeLa. Type of data set: cell-based, human. The note with it: 5-10-25 μM, 48 h. How it is done:
as §4, §5
Figure 4 Cell cycle analysis: (a) DNA content and (b) hypodiploid nuclei, with propidium iodide staining, were evaluated by flow cytometric assay. HeLa cells were treated with 6 (5-10-25 μM) for 48 h. Results are expressed as mean ± S.E.M. of three independent experiments each performed in duplicate. Data were analyzed by Student’s t-test. * p < 0.05 and ** p < 0.005 vs. non-treated.
On the technique in general: In flow cytometry, cells or beads pass a laser one at a time.

For the next data set, the system named is PC3. Also noted: method as in PMID 29926854. The settings on record: PC3 cells; read-out: antiproliferative activity IC50, PC3; cited from earlier work.
Another data set concerns A549. On the set-up: method as in PMID 29926854. The settings on record: A549 cells; read-out: antiproliferative activity IC50, A549; cited from earlier work.
The subject of data set [3] is human PHA (Phytohaemagglutinin)-stimulated proliferating non-tumor human cell line (PMBC). On the set-up: method as in PMID 29926854. The settings on record: 10–50 μM, 72 h of exposure; cited from earlier work.
The target in data set [4] is T1, human recombinant BAG4 protein (Homo sapiens, UniProt O95429).
T1 sequence (O95429 1-457): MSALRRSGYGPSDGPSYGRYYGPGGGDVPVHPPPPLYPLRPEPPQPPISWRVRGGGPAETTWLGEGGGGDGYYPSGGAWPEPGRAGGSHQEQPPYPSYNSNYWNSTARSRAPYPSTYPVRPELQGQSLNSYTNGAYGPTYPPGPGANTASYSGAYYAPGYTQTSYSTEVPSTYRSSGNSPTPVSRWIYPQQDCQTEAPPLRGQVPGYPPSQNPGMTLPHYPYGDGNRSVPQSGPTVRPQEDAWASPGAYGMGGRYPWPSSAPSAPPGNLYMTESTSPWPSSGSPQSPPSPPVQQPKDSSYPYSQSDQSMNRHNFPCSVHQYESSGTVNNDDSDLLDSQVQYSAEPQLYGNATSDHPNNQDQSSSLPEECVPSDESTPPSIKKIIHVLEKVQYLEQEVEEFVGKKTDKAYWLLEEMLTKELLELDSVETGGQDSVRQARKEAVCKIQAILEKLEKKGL
Nature of the data set: SPR assay on BAG4 (selectivity). The settings on record: 25 °C, n.b. = no binding. For orientation: In SPR one partner is held on a chip, and binding of the other changes the refractive index at the surface.
Description: (§6) A surface plasmon resonance (SPR) assay [18], using a recombinant BAG3 protein, was performed and, to explore the potential selectivity of our potential binders, the affinity for BAG4—the most closely BAG3 related protein—was also evaluated. Moreover, the binding affinity towards the BAG3BD domain was also assessed.
(§7) The SPR analysis were performed on Biacore 3000^TM equipped with a research-grade CM5 sensor chip (GE Healthcare^TM, Milan, Italy). Human recombinant BAG3 (rBAG3) protein was purchased from MyBioSource© (San Diego, CA, USA), BAG3 domain (rBAG3BD) was purchased from ARETA International S.r.l. […] The proteins were coupled to the surface of a CM5 sensor chip using standard amine-coupling protocols, according to the manufacturer’s instructions. Three separates recombinant rBAG proteins surfaces and one unmodified reference surface were prepared for simultaneous analyses. rBAG proteins (BAG3 and BAG4) and rBAG3BD (100 µg mL^−1 in 10 mM CH3COONa, pH 4.5) were immobilized on the sensor chip surface at a flow rate of 5 µL min^−1 to obtain densities of 5–9 kRU. […] For each molecule, a six-point concentration series was conducted in triplicate (0-0.25-1-10-20-100 µM). SPR (Surface Plasmon Resonance) experiments were performed at 25 °C, using a flow rate of 10 µL min^−1, with 60-s monitoring of association and 300-s monitoring of dissociation. Sensorgram elaborations were performed using the BIAevaluation software (GE Healthcare^TM, Milan, Italy). provided by GE Healthcare^TM. Simple interactions were suitably fitted to a single-site bimolecular interaction model (A + B = AB), yielding a single KD.

The target of the next data set is T2, BAG3 domain (rBAG3BD) (Homo sapiens, UniProt O95817).
T2 sequence (O95817 421-498 limits assumed): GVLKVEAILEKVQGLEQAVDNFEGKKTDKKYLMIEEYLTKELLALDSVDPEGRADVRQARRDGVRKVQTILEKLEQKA
Nature of the data set: SPR assay on isolated BAG3 BAG domain.

The target in data set [5] is Human recombinant BAG3 (rBAG3) protein full length (Homo sapiens, UniProt O95817). Nature of the data set: SPR assay on recombinant full-length BAG3.
Sequence of Human recombinant BAG3 (rBAG3) protein full length (O95817 whole entry): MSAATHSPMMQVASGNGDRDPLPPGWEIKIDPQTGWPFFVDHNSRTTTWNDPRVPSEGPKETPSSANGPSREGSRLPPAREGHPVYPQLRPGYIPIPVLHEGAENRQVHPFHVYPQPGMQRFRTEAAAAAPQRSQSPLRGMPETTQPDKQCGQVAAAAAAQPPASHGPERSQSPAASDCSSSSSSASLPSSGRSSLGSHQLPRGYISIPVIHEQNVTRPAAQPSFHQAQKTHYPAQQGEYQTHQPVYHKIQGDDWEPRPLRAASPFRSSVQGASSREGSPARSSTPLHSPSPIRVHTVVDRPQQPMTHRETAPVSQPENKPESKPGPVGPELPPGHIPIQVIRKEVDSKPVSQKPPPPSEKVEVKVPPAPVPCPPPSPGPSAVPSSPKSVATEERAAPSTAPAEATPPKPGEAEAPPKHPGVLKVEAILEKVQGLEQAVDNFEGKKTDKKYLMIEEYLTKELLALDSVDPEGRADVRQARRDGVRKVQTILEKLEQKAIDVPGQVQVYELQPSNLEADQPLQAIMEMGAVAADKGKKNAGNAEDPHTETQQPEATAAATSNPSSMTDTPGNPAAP
Description: as §6, §7

Description for BAG3 domain (rBAG3BD): as §6, §7

What is called IC50 is the concentration needed to halve the response being measured. Broadly, the Kd is the constant that tells how readily two partners part at equilibrium. `CCOC(=O)CN1C(=O)S/C(=C\c2ccc(O)c(O)c2)C1=O` [Compound 1, reference compound]: the IC50 was 15.1 ± 0.9 µM in [1], greater than 50 µM in data set [2], 48.1 ± 1.5 µM in the data set on PC3 and 32.3 ± 0.9 µM in the data set on A549. The “apoptotic response (hypodiploid nuclei), A375” value in the data set on A375 cells was “dose-dependent increase in hypodiploid nuclei”. In the data set on A375 cells, the “cell cycle distribution (G2 phase), A375” value is on record as “accumulation in the G2 phase”. Moreover, the “cell cycle distribution (G2 phase), HeLa” value with HeLa cells is “no evident effect”. Further, the “effect on PHA-stimulated proliferating non-tumor cells” value in data set [3] was “No effect”. For the same compound, the “rBAG4 KD ± SD” value in data set [4] is given as “n.b. ^a”. Also, the Kd came to 0.0064 ± 0.0022 µM at BAG3 domain (rBAG3BD) and 0.0111 ± 0.0039 µM in data set [5].

Source of the values: publication PMC8839660, “Structural Refinement of 2,4-Thiazolidinedione Derivatives as New Anticancer Agents Able to Modulate the BAG3 Protein” (Molecules, 2022).
